Patent US20250146012A1 (priority 2011, published 2025)
Like-named read-outs stand apart in the source and are kept apart here.

What was measured:
[1] = system: transgenic cotton events (eight events)
Procedure: (§1) In year 1, efficacy testing was conducted with eight events compared to non-transgenic, wild-type Coker 130. For this testing, paired plots were sprayed with dicamba (Clarity®, BASF, Research Triangle Park, NC) and glufosinate (Ignite®, Bayer CropScience, Research Triangle Park, NC) or left unsprayed. The plots were maintained weed-and insect-free using conventional control programs for the duration of the trial. […] For plots that were sprayed, the following applications were conducted: dicamba was applied preemergence at 1 lb/A followed by glufosinate applied 1.09lb/A at the 2 node stage, followed by dicamba applied at 1 lb/A at the 5 node stage, followed by glufosinate applied 1.09 lb/A at the 8 node stage, followed by dicamba applied at 1 lb/A at the 12 node stage. Neither dicamba nor glufosinate were applied with surfactants, fertilizer additive, or other adjuvant. […] Plots were harvested and yield recorded as lbs/plot of seed cotton and expressed as lb/acre of seed cotton. […]

[2] = system: non-transgenic, wild-type Coker 130; test: Year 1 efficacy field trial, wild-type control; type: in vivo, Gossypium hirsutum; settings: sequential regimen: dicamba 1 lb/A preemergence, 5 node, 12 node; glufosinate 1.09 lb/A at 2 node and 8 node; FIG. 7
Procedure: as §1

[3] = system: plants comprising the MON 88701 event; type: in vivo, Gossypium hirsutum
Procedure: In year 3, efficacy field testing of event MON 88701 was conducted to study the rate and timing of application of dicamba and/or glufosinate. […] The treatment and application timing are detailed in Table 2. […] The sprayer protocol was as described for year 2 efficacy field testing. Stand rating, visual injury rating (percent epinasty, percent necrosis), plant height and node number, 50-boll sampling, and yield determinations were as described for agronomic and efficacy field testing above.

[4] = system: wild-type cotton (Coker 130); test: Year 2 efficacy field trial, wild-type plots; type: in vivo, Gossypium hirsutum; settings: 1× rate (0.5 lb/A), half plot each herbicide, at one post-emergence timing (Early, Mid, Late)
Procedure: In year 2, efficacy testing was conducted with twelve events compared to non-transgenic, wild-type Coker 130. For this testing, paired plots were either sprayed or not sprayed. The plots were maintained weed-and insect-free using conventional control programs for the duration of the trial. For the plots that were sprayed, the following treatment applications were conducted (1) 0.5 lb/A dicamba applied PRE, Early POST, Mid POST and Late POST; (2) 1 lb/A dicamba applied PRE, Early POST, Mid POST and Late POST; (3) 2 lb/A dicamba applied PRE, Early POST, Mid POST and Late POST; (4) 0.5 lb/A glufosinate applied Early POST, Mid POST and Late POST: (5) 1 lb/A glufosinate applied Early POST, Mid POST and Late POST: 6) 2 lb/A glufosinate applied Early POST, Mid POST and Late POST; and 7) Control (unsprayed). Preemergence (PRE) is defined as immediately after cotton planting (within 24 hours); Early POST as 2-node cotton; Mid POST as 8-node cotton; and Late POST as 14 node cotton. […]
At each rating time, the following observations were recorded: 1) percent necrosis or burn on the most affected leaves; 2) percent necrosis or burn on a whole-plant basis; 3) epinasty; and 4) any other relevant injury that was observed. […] Plots were harvested and recorded as lbs/plot of seedcotton and expressed as lb/acre of seedcotton.

[5] = system: plants comprising the MON 88701 event
Procedure: In year 2, efficacy testing was conducted with twelve events compared to non-transgenic, wild-type Coker 130. For this testing, paired plots were either sprayed or not sprayed. The plots were maintained weed-and insect-free using conventional control programs for the duration of the trial. For the plots that were sprayed, the following treatment applications were conducted (1) 0.5 lb/A dicamba applied PRE, Early POST, Mid POST and Late POST; (2) 1 lb/A dicamba applied PRE, Early POST, Mid POST and Late POST; (3) 2 lb/A dicamba applied PRE, Early POST, Mid POST and Late POST; (4) 0.5 lb/A glufosinate applied Early POST, Mid POST and Late POST: (5) 1 lb/A glufosinate applied Early POST, Mid POST and Late POST: 6) 2 lb/A glufosinate applied Early POST, Mid POST and Late POST; and 7) Control (unsprayed). Preemergence (PRE) is defined as immediately after cotton planting (within 24 hours); Early POST as 2-node cotton; Mid POST as 8-node cotton; and Late POST as 14 node cotton. For these efficacy field trials, there were three plots composed entirely of wild-type cotton (Coker 130). At each post-emergence timing (Early, Mid, Late), one-half of a plot was sprayed with the 1× rate (0.5 lb/A) of dicamba and one-half of the same plot was sprayed with the 1× rate (0.5 lb/A) of glufosinate. Each of the three plots received dicamba and glufosinate spray at one of the post-emergence timing spray applications (Early, Mid, Late).
XR TeeJet® extended range flat spray tips with an 80-degree spray angle were used (TeeJet Technologies, Wheaton, IL). There were 2 nozzles per row (nozzles spaced at 15″ for 30″ rows, 19″ for 38″ rows and 20″ for 40″ rows). Nozzle size depended on sprayer speed and nozzle spacing; however, nozzle size was selected to result in a spray pressure of 25 to 35 PSI. Boom height was adjusted to allow for 50% spray overlap (which occurs at roughly 30″ above the top of the crop).
At each rating time, the following observations were recorded: 1) percent necrosis or burn on the most affected leaves; 2) percent necrosis or burn on a whole-plant basis; 3) epinasty; and 4) any other relevant injury that was observed. Ratings were taken four days after each application and immediately prior to subsequent applications. […] Plots were harvested and recorded as lbs/plot of seedcotton and expressed as lb/acre of seedcotton.

Compound: COc1c(Cl)ccc(Cl)c1C(=O)O [dicamba, 3,6-dichloro-2-methoxybenzoic acid]
- yield of seed cotton, paired sprayed and unsprayed events compared to unsprayed wild-type Coker 130 ([1]; in vivo): no significant difference
- survival of the spray regimen [2]: did not survive
- yield of seedcotton ([3]; in vivo): no yield loss
- survival of herbicide spray [4]: did not survive
- injury rating with increasing application rates of dicamba ([5]; in vivo): increased percentage of injury
- yield of seedcotton with increasing application rates of dicamba ([5]; in vivo): nearly equivalent

Compound: 2-amino-4-(hydroxymethylphosphinyl)butanoic acid [glufosinate]
- yield of seed cotton, paired sprayed and unsprayed events compared to unsprayed wild-type Coker 130 ([1]; sequential regimen: dicamba 1 lb/A preemergence, 5 node, 12 node, glufosinate 1.09 lb/A at 2 node and 8 node, FIG. 3): no significant difference
- survival of the spray regimen [2]: did not survive
- yield of seedcotton ([3]; all other treatment regimens of Table 2 (0.25-1 lb ai/A, four timings), FIG. 6): no yield loss
- survival of herbicide spray [4]: did not survive
- injury rating with increasing application rates of glufosinate ([5]; 0.5, 1, 2 lb/A glufosinate Early, Mid, Late POST, FIG. 5.B): increased percentage of injury
- yield of seedcotton with increasing application rates of glufosinate ([5]; 0.5, 1, 2 lb/A glufosinate applied Early POST, Mid POST and Late POST, FIG. 4.B): nearly equivalent
